Here are results for 11 compounds from patent US8487108B2, “Piperidinyl carbamate intermediates for the synthesis of aspartic protease inhibitors” (Vitae Pharmaceuticals, Inc., priority 2005, dated 2013).

Each structure is given as a SMILES string.

The target in data set [1] is T1, plasma renin activity (PRA) in pooled mixed-gender human plasma (Homo sapiens, UniProt P00797).
T1 construct: pooled mixed-gender human plasma stabilized with EDTA; from tissue; host or cells: pooled mixed-gender human plasma (EDTA)
T1 sequence (P00797 67-406): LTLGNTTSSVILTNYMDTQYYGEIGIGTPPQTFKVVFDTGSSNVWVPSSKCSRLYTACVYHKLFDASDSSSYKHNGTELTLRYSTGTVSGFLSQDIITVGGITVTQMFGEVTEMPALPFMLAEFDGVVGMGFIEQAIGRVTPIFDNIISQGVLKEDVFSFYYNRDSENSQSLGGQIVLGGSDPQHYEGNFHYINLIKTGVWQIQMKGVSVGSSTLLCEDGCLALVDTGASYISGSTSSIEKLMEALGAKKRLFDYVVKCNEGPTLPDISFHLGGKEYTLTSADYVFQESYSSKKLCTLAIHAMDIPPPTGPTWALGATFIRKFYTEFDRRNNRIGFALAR
Kind of data set: Plasma renin activity (PRA) assay in human plasma. It is filed as biochemical. How it is done:
Incubations mixtures contain in the final volume of 250 μL 95.5 mM N,N-bis(2-hydroxyethyl)-2-aminoethanesulfonic acid, pH 7.0, 8 mM EDTA, 0.1 mM neomycin sulfate, 1 mg/mL sodium azide, 1 mM phenylmethanesulfonyl fluoride, 2% DMSO and 87.3% of pooled mixed-gender human plasma stabilized with EDTA. For plasma batches with low PRA (less than 1 ng/ml/hr) ˜2 pM of recombinant human renin is added to achieve PRA of 3-4 ng/ml/hr. The cleavage of endogenous angiotensinogen in plasma is carried out at 37° C. for 90 min and the product angiotensin I is measured by competitive radioimmunoassay using DiaSorin PRA kit.

Data set [2] deals with T2, trypsin-activated recombinant human renin (Homo sapiens, UniProt P00797).
T2 sequence (P00797 67-406): T1 sequence (P00797 67-406)
Description: Renin fluorescence assay (internally quenched peptide substrate). It counts as biochemical. The method, boiled down: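 Cleavage of an angiotensinogen-derived DABCYL-quenched peptide by trypsin-activated recombinant human renin (0.2-2 nM final) in 50 mM BES, 150 mM NaCl, 0.25 mg/mL BSA, pH 7.0; compounds 10 μM to 1 nM final. Fluorescence (ex 340/em 495 nm) followed 60-360 min at rt; linear-slope rates give percent inhibition versus uninhibited control.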

The test system of data set [3] is double transgenic rats engineered to express human renin and human angiotensinogen. Description: Blood pressure by telemetry in double transgenic rats. It counts as in vivo, rat. The following applies: dosage of 10 mg/kg, oral. On the procedure: Double Transgenic Rats: The efficacy of the renin inhibitors can also evaluated in vivo in double transgenic rats engineered to express human renin and human angiotensinogen (Bohlender J, Fukamizu A, Lippoldt A, Nomura T, Dietz R, Menard J, Murakami K, Luft F C, Ganten D. High human renin hypertension in transgenic rats. Hypertension 1997, 29, 428-434).
(§1) Experiments were conducted in 6-week-old double transgenic rats (dTGRs). The model has been described in detail earlier. […] The human angiotensinogen construct made up the entire human angiotensinogen gene (5 exons and 4 introns), with 1.3 kB of 5′-flanking and 2.4 kB of 3′-flanking sequences. The rats were purchased from RCC Ltd (Füllinsdorf, Switzerland). Radio telemetry transmitters were surgically implanted at 4 weeks of age. The telemetry system provided 24-h recordings of systolic, mean, diastolic arterial pressure (SAP, MAP, DAP, respectively) and heart rate (HR). Beginning on day 42, animals were transferred to telemetry cages. A 24 h telemetry reading was obtained. Rats were then dosed orally on the following 4 consecutive days (days 43-46). The rats were monitored continuously and allowed free access to standard 0.3%-sodium rat chow and drinking water.

The nature of data set [4]: Plasma concentration in double transgenic rats after oral administration. It counts as in vivo, rat. To be noted: 10 mg/kg oral. How it is done:
FIG. 2 is a plot showing mean plasma concentrations of compound L-6a in transgenic rats over time following oral administration of 10 mg/kg of compound L-6a.
as §1

Regarding `CNC[C@@H](CC1CCCOC1)NC(=O)N1CCC[C@@H]([C@@H](OCCNC(=O)OC)c2cc(F)cc(Cl)c2)C1` (single isomer, unassigned) [Example L-3c], the IC50 in data set [1] (compounds of Formula (L)) and in data set [2] (compounds of Formula (L)) was less than 10 nM each time.
Turning to `CNC[C@@H](CC1CCCOC1)NC(=O)N1CCC[C@@H]([C@@H](OCCNC(=O)OC)c2cc(F)cc(Cl)c2)C1` (single isomer, unassigned) [Example L-3d], the IC50 in data set [1] (compounds of Formula (L)) and in data set [2] (compounds of Formula (L)) was less than 20 nM in each case.
With `CNC[C@H](C[C@H]1CCCOC1)NC(=O)N1CCC[C@@H]([C@@H](OCCNC(=O)OC)c2cccc(Cl)c2)C1` [Example L-6a, methyl 2-((R)-(3-chlorophenyl)((R)-1-((S)-1-(methylamino)-3-((R)-tetrahydro-2H-pyran-3-yl)propan-2-ylcarbamoyl)-piperidin-3-yl)methoxy)-ethylcarbamate], in data set [3], the “effect in lowering blood pressures of double transgenic rats” value is listed as “significant effect in lowering blood pressures”. Also, in data set [4], the “availability in rat's plasma following oral administration” value is reported as “readily available in rat's plasma”, the metabolic stability result is reported as “excellent” and the oral bioavailability result is “excellent”. Moreover, the “plasma concentration over 24 h period” value in data set [4] (over 24 h) is reported as “remains relatively high”.
As to `COC(=O)NCCO[C@@H](c1cccc(Cl)c1)[C@@H]1CCCN(C(=O)NC[C@@H](N)C[C@H]2CCCOC2)C1` [XL-1, methyl 2-((R)-((R)-1-((S)-2-amino-3-((R)-tetrahydro-2H-pyran-3-yl)propylcarbamoyl)piperidin-3-yl)(3-chlorophenyl)methoxy)ethylcarbamate], the IC50 in data set [1] (compounds of Formula (XL)) and in data set [2] (compounds of Formula (XL)) was less than 10 nM in each case.
As to `COC(=O)NCCO[C@@H](c1cccc(F)c1)[C@@H]1CCCN(C(=O)NC[C@@H](N)C[C@H]2CCCOC2)C1` [XL-2, methyl 2-((R)-((R)-1-((S)-2-amino-3-((R)-tetrahydro-2H-pyran-3-yl)propylcarbamoyl)piperidin-3-yl)(3-fluorophenyl)methoxy)ethylcarbamate], the half-inhibitory concentration (IC50) in data set [1] (compounds of Formula (XL)) was less than 20 nM; in data set [2] (compounds of Formula (XL)), less than 10 nM.
With `COC(=O)NCCO[C@@H](c1cc(F)cc(Cl)c1)[C@@H]1CCCN(C(=O)NC[C@@H](N)C[C@H]2CCCOC2)C1` [XL-3, methyl 2-((R)-((R)-1-((S)-2-amino-3-((R)-tetrahydro-2H-pyran-3-yl)propylcarbamoyl)piperidin-3-yl)(3-chloro-5-fluorophenyl)methoxy)ethylcarbamate], the IC50 in data set [1] (compounds of Formula (XL)) and in data set [2] (compounds of Formula (XL)) was less than 10 nM throughout.
On to `COC(=O)NCCO[C@@H](c1cc(F)cc(F)c1)[C@@H]1CCCN(C(=O)NC[C@@H](N)C[C@H]2CCCOC2)C1` [XL-4, methyl 2-((R)-((R)-1-((S)-2-amino-3-((R)-tetrahydro-2H-pyran-3-yl)propylcarbamoyl)piperidin-3-yl)(3,5-difluorophenyl)methoxy)ethylcarbamate], for which the concentration for half-maximal inhibition (IC50) in data set [1] (compounds of Formula (XL)) and in data set [2] (compounds of Formula (XL)) was less than 10 nM in each case.
Consider `COC(=O)NCCO[C@@H](c1cc(Cl)ccc1C)[C@@H]1CCCN(C(=O)NC[C@@H](N)C[C@H]2CCCOC2)C1` [XL-5, methyl 2-((R)-((R)-1-((S)-2-amino-3-((R)-tetrahydro-2H-pyran-3-yl)propylcarbamoyl)piperidin-3-yl)(5-chloro-2-methylphenyl)methoxy)ethylcarbamate], for which the IC50 in data set [1] (compounds of Formula (XL)) and in data set [2] (compounds of Formula (XL)) was less than 1 nM throughout.
As for `COC(=O)NCCO[C@@H](c1cc(F)ccc1C)[C@@H]1CCCN(C(=O)NC[C@@H](N)C[C@H]2CCCOC2)C1` [XL-6, methyl 2-((R)-((R)-1-((S)-2-amino-3-((R)-tetrahydro-2H-pyran-3-yl)propylcarbamoyl)piperidin-3-yl)(5-fluoro-2-methylphenyl)methoxy)ethylcarbamate], the IC50 in data set [1] (compounds of Formula (XL)) was less than 50 nM; in data set [2] (compounds of Formula (XL)) it was less than 10 nM.
For `CN[C@H](CNC(=O)N1CCC[C@@H]([C@@H](OCCNC(=O)OC)c2cccc(Cl)c2)C1)C[C@H]1CCCOC1` [XL-7, methyl 2-((R)-(3-chlorophenyl)((R)-1-((S)-2-(methylamino)-3-((R)-tetrahydro-2H-pyran-3-yl)propylcarbamoyl)piperidin-3-yl)methoxy)ethylcarbamate], the IC50 in data set [1] (compounds of Formula (XL)) is less than 10 nM; in data set [2] (compounds of Formula (XL)), less than 1 nM. In data set [3], the “effect in lowering blood pressures of double transgenic rats” value was “significant effect in lowering blood pressures”.
Consider `CN[C@H](CNC(=O)N1CCC[C@@H]([C@@H](OCCNC(=O)OC)c2cc(Cl)ccc2C)C1)C[C@H]1CCCOC1` [XL-8, methyl 2-((R)-(5-chloro-2-methylphenyl)((R)-1-((S)-2-(methylamino)-3-((R)-tetrahydro-2H-pyran-3-yl)propylcarbamoyl)piperidin-3-yl)methoxy)ethylcarbamate], for which the concentration for half-maximal inhibition (IC50) in data set [1] (compounds of Formula (XL)) is less than 10 nM; in data set [2] (compounds of Formula (XL)), less than 1 nM.
